This passage reports IC50 results from ChEMBL document CHEMBL5346973 (J Med Chem, 2023).

A word on the IC50: it is the midpoint of a concentration-inhibition curve.

Where a SMILES comes first, the peptide text is derived from it.

For assay [1], the target named is Neuronal acetylcholine receptor subunit alpha-7 (Rattus norvegicus, UniProt Q05941). Nature of the assay: Antagonist activity at rat alpha7 nACh receptor expressed in Xenopus oocyte assessed as inhibition of acetylcholine-induced response at -70 mV holding potential by voltage-clamp based electrophysiological assay. It is filed as cell-based.
Assay [2] addresses Nicotinic acetylcholine receptor alpha9/alpha10 (Rattus norvegicus, UniProt P43144+Q9JLB5). Nature of the assay: Antagonist activity at rat alpha9alpha10 nACh receptor expressed in Xenopus oocyte assessed as inhibition of acetylcholine-induced response at -70 mV holding potential by voltage-clamp based electrophysiological assay. It is filed as cell-based.

Nicotinic acetylcholine receptor alpha9/alpha10, sequence (P43144 whole entry): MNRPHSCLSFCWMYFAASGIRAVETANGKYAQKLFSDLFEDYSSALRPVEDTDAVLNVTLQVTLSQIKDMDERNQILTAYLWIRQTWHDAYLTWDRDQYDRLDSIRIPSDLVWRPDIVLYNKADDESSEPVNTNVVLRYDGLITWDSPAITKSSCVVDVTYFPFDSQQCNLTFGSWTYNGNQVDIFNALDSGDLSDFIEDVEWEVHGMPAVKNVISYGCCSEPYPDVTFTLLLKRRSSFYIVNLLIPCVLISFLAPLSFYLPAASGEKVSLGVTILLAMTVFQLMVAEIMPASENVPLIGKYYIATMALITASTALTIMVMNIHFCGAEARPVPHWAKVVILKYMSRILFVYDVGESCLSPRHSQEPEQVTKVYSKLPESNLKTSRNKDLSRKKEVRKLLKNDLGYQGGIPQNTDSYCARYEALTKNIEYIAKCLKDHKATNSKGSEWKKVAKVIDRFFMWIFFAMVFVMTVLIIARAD
Nicotinic acetylcholine receptor alpha9/alpha10, sequence (Q9JLB5 whole entry): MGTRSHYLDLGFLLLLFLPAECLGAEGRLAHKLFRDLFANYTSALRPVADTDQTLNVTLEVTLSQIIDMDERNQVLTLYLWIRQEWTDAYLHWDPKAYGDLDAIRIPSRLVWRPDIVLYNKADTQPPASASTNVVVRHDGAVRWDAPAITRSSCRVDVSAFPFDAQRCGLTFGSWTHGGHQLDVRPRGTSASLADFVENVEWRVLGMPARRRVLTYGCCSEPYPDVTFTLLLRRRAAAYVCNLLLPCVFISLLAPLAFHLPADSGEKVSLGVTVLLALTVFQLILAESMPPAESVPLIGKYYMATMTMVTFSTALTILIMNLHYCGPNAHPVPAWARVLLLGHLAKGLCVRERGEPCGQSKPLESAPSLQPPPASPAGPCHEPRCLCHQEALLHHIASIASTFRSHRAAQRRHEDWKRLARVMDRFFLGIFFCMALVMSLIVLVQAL
Neuronal acetylcholine receptor subunit alpha-7, sequence (Q05941 whole entry): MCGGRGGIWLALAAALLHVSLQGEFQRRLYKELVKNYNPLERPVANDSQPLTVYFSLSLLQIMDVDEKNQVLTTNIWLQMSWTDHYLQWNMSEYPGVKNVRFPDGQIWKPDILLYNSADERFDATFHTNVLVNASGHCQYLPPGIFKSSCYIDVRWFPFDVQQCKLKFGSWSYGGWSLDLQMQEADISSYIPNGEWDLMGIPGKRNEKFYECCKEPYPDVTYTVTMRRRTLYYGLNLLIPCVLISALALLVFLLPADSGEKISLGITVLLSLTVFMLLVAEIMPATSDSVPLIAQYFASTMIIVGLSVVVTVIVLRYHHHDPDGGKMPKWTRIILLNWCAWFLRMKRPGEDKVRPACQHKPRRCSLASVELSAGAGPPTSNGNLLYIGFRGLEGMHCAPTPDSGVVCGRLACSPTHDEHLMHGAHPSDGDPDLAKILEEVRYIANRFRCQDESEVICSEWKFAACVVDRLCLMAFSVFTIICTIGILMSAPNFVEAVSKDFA

Take `CC[C@H](C)[C@@H]1NC(=O)[C@H](CCCNC(=N)N)NC(=O)[C@H](CCCNC(=N)N)NC(=O)[C@@H]2CSSC[C@H](NC(=O)[C@H](Cc3ccc(O)cc3)NC(=O)[C@H](CCCNC(=N)N)NC(=O)CNC(=O)[C@H](CO)NC(=O)[C@H](CO)NC(=O)[C@H](CCCNC(=N)N)NC(=O)[C@@H](NC(=O)[C@@H](N)[C@@H](C)O)CSSC[C@@H](C(=O)N[C@H](C(=O)O)C(C)C)NC(=O)[C@H](C)NC(=O)[C@H](CC(=O)O)NC(=O)[C@H]([C@@H](C)O)NC1=O)C(=O)N[C@@H](CCCNC(=N)N)C(=O)N[C@@H](C)C(=O)N1CCC[C@H]1C(=O)N[C@@H](Cc1ccc(O)cc1)C(=O)N[C@@H](CC(=O)O)C(=O)N[C@@H](CCCNC(=N)N)C(=O)N[C@@H](CCCNC(=N)N)C(=O)N[C@@H](CCCNC(=N)N)C(=O)N[C@@H](CCCNC(=N)N)C(=O)N[C@@H](Cc1ccc(O)cc1)C(=O)N2` (HELM PEPTIDE1{T.C.R.S.S.G.R.Y.C.R.A.P.Y.D.R.R.R.R.Y.C.R.R.I.T.D.A.C.V}$PEPTIDE1,PEPTIDE1,2:R3-27:R3|PEPTIDE1,PEPTIDE1,9:R3-20:R3$$$V2.0): the IC50 in assay [1] is 5600 nM; in assay [2] it was 10 nM.

With `CC[C@H](C)[C@@H]1NC(=O)[C@H](CCCNC(=N)N)NC(=O)[C@H](CCCNC(=N)N)NC(=O)[C@@H]2CSSC[C@H](NC(=O)[C@H](Cc3ccc(O)cc3)NC(=O)[C@H](CCCNC(=N)N)NC(=O)CNC(=O)[C@H](CO)NC(=O)[C@H](CO)NC(=O)[C@H](CCCNC(=N)N)NC(=O)[C@@H](NC(=O)[C@@H](N)[C@@H](C)O)CSSC[C@@H](C(=O)N[C@H](C(=O)O)C(C)C)NC(=O)[C@H](C)NC(=O)[C@H](CC(=O)O)NC(=O)[C@H]([C@@H](C)O)NC1=O)C(=O)N[C@@H](CCCNC(=N)N)C(=O)N[C@@H](CO)C(=O)N1CCC[C@H]1C(=O)N[C@@H](C)C(=O)N[C@@H](CC(=O)O)C(=O)N[C@@H](CCCNC(=N)N)C(=O)N[C@@H](CCCNC(=N)N)C(=O)N[C@@H](CCCNC(=N)N)C(=O)N[C@@H](CCCNC(=N)N)C(=O)N[C@@H](Cc1ccc(O)cc1)C(=O)N2` (HELM PEPTIDE1{T.C.R.S.S.G.R.Y.C.R.S.P.A.D.R.R.R.R.Y.C.R.R.I.T.D.A.C.V}$PEPTIDE1,PEPTIDE1,2:R3-27:R3|PEPTIDE1,PEPTIDE1,9:R3-20:R3$$$V2.0), the 50% inhibitory concentration (IC50) in assay [1] was 4680 nM; in assay [2], 20 nM.

On to `CC[C@H](C)[C@@H]1NC(=O)[C@H](CCCNC(=N)N)NC(=O)[C@H](CCCNC(=N)N)NC(=O)[C@@H]2CSSC[C@H](NC(=O)[C@H](Cc3ccc(O)cc3)NC(=O)[C@H](CCCNC(=N)N)NC(=O)CNC(=O)[C@H](CO)NC(=O)[C@H](CO)NC(=O)[C@H](CCCNC(=N)N)NC(=O)[C@@H](NC(=O)[C@@H](N)[C@@H](C)O)CSSC[C@@H](C(=O)N[C@@H](C)C(=O)O)NC(=O)[C@H](C)NC(=O)[C@H](CC(=O)O)NC(=O)[C@H]([C@@H](C)O)NC1=O)C(=O)N[C@@H](CCCNC(=N)N)C(=O)N[C@@H](CO)C(=O)N1CCC[C@H]1C(=O)N[C@@H](Cc1ccc(O)cc1)C(=O)N[C@@H](CC(=O)O)C(=O)N[C@@H](CCCNC(=N)N)C(=O)N[C@@H](CCCNC(=N)N)C(=O)N[C@@H](CCCNC(=N)N)C(=O)N[C@@H](CCCNC(=N)N)C(=O)N[C@@H](Cc1ccc(O)cc1)C(=O)N2`, for which the concentration for half-maximal inhibition (IC50) in assay [1] is 1600 nM; in assay [2], 62 nM.

On to `CC[C@H](C)[C@@H]1NC(=O)[C@H](CCCNC(=N)N)NC(=O)[C@H](C)NC(=O)[C@@H]2CSSC[C@H](NC(=O)[C@H](Cc3ccc(O)cc3)NC(=O)[C@H](CCCNC(=N)N)NC(=O)CNC(=O)[C@H](CO)NC(=O)[C@H](CO)NC(=O)[C@H](CCCNC(=N)N)NC(=O)[C@@H](NC(=O)[C@@H](N)[C@@H](C)O)CSSC[C@@H](C(=O)N[C@H](C(=O)O)C(C)C)NC(=O)[C@H](C)NC(=O)[C@H](CC(=O)O)NC(=O)[C@H]([C@@H](C)O)NC1=O)C(=O)N[C@@H](CCCNC(=N)N)C(=O)N[C@@H](CO)C(=O)N1CCC[C@H]1C(=O)N[C@@H](Cc1ccc(O)cc1)C(=O)N[C@@H](CC(=O)O)C(=O)N[C@@H](CCCNC(=N)N)C(=O)N[C@@H](CCCNC(=N)N)C(=O)N[C@@H](CCCNC(=N)N)C(=O)N[C@@H](CCCNC(=N)N)C(=O)N[C@@H](Cc1ccc(O)cc1)C(=O)N2`, for which the IC50 is more than 10000 nM in assay [1] and 37 nM in assay [2].

For `CC[C@H](C)[C@@H]1NC(=O)[C@H](CCCNC(=N)N)NC(=O)[C@H](CCCNC(=N)N)NC(=O)[C@@H]2CSSC[C@H](NC(=O)[C@H](Cc3ccc(O)cc3)NC(=O)[C@H](CCCNC(=N)N)NC(=O)CNC(=O)[C@H](CO)NC(=O)[C@H](CO)NC(=O)[C@H](CCCNC(=N)N)NC(=O)[C@@H](NC(=O)[C@@H](N)[C@@H](C)O)CSSC[C@@H](C(=O)N[C@H](C(=O)O)C(C)C)NC(=O)[C@H](C)NC(=O)[C@H](CC(=O)O)NC(=O)[C@H]([C@@H](C)O)NC1=O)C(=O)N[C@@H](CCCNC(=N)N)C(=O)N[C@@H](CO)C(=O)N1CCC[C@H]1C(=O)N[C@@H](Cc1ccc(O)cc1)C(=O)N[C@@H](CC(=O)O)C(=O)N[C@@H](CCCNC(=N)N)C(=O)N[C@@H](CCCNC(=N)N)C(=O)N[C@@H](CCCNC(=N)N)C(=O)N[C@@H](CCCNC(=N)N)C(=O)N[C@@H](C)C(=O)N2`, the IC50 in assay [1] is 7640 nM; in assay [2], 38 nM.

Consider `CC[C@H](C)[C@@H]1NC(=O)[C@H](CCCNC(=N)N)NC(=O)[C@H](C)NC(=O)[C@@H](NC(=O)[C@H](Cc2ccc(O)cc2)NC(=O)[C@H](CCCNC(=N)N)NC(=O)[C@H](CCCNC(=N)N)NC(=O)[C@H](CCCNC(=N)N)NC(=O)[C@H](CCCNC(=N)N)NC(=O)[C@H](CC(=O)O)NC(=O)[C@H](Cc2ccc(O)cc2)NC(=O)[C@@H]2CCCN2C(=O)[C@H](CO)NC(=O)[C@H](CCCNC(=N)N)NC(=O)[C@@H]2CSSC[C@H](NC(=O)[C@@H](N)[C@@H](C)O)C(=O)N[C@@H](CCCNC(=N)N)C(=O)N[C@@H](CO)C(=O)N[C@@H](CO)C(=O)NCC(=O)N[C@@H](CCCNC(=N)N)C(=O)N[C@@H](Cc3ccc(O)cc3)C(=O)N2)CSSC[C@@H](C(=O)N[C@H](C(=O)O)C(C)C)NC(=O)[C@H](C)NC(=O)[C@H](CC(=O)O)NC(=O)[C@H]([C@@H](C)O)NC1=O`, for which the values for the IC50 in assay [1] and in assay [2] were 5610 nM and 14 nM, respectively.

With `CC[C@H](C)[C@@H]1NC(=O)[C@H](CCCNC(=N)N)NC(=O)[C@H](CCCNC(=N)N)NC(=O)[C@@H]2CSSC[C@H](NC(=O)[C@H](Cc3ccc(O)cc3)NC(=O)[C@H](CCCNC(=N)N)NC(=O)CNC(=O)[C@H](CO)NC(=O)[C@H](CO)NC(=O)[C@H](CCCNC(=N)N)NC(=O)[C@@H](NC(=O)[C@@H](N)[C@@H](C)O)CSSC[C@@H](C(=O)N[C@H](C(=O)O)C(C)C)NC(=O)[C@H](C)NC(=O)[C@H](CC(=O)O)NC(=O)[C@H]([C@@H](C)O)NC1=O)C(=O)N[C@@H](CCCNC(=N)N)C(=O)N[C@@H](CO)C(=O)N1CCC[C@H]1C(=O)N[C@@H](Cc1ccc(O)cc1)C(=O)N[C@@H](CC(=O)O)C(=O)N[C@@H](CCCNC(=N)N)C(=O)N[C@@H](C)C(=O)N[C@@H](CCCNC(=N)N)C(=O)N[C@@H](CCCNC(=N)N)C(=O)N[C@@H](Cc1ccc(O)cc1)C(=O)N2`, the IC50 in assay [1] was more than 10000 nM; in assay [2] it was 83 nM.

Turning to `CC[C@H](C)[C@@H]1NC(=O)[C@H](CCCNC(=N)N)NC(=O)[C@H](CCCNC(=N)N)NC(=O)[C@@H](NC(=O)[C@H](Cc2ccc(O)cc2)NC(=O)[C@H](CCCNC(=N)N)NC(=O)[C@H](CCCNC(=N)N)NC(=O)[C@H](CCCNC(=N)N)NC(=O)[C@H](CCCNC(=N)N)NC(=O)[C@H](CC(=O)O)NC(=O)[C@H](Cc2ccc(O)cc2)NC(=O)[C@@H]2CCCN2C(=O)[C@H](CO)NC(=O)[C@H](CCCNC(=N)N)NC(=O)[C@@H]2CSSC[C@H](NC(=O)[C@@H](N)[C@@H](C)O)C(=O)N[C@@H](CCCNC(=N)N)C(=O)N[C@@H](CO)C(=O)N[C@@H](C)C(=O)NCC(=O)N[C@@H](CCCNC(=N)N)C(=O)N[C@@H](Cc3ccc(O)cc3)C(=O)N2)CSSC[C@@H](C(=O)N[C@H](C(=O)O)C(C)C)NC(=O)[C@H](C)NC(=O)[C@H](CC(=O)O)NC(=O)[C@H]([C@@H](C)O)NC1=O` (HELM PEPTIDE1{T.C.R.S.A.G.R.Y.C.R.S.P.Y.D.R.R.R.R.Y.C.R.R.I.T.D.A.C.V}$PEPTIDE1,PEPTIDE1,2:R3-9:R3|PEPTIDE1,PEPTIDE1,20:R3-27:R3$$$V2.0), the IC50 in assay [1] amounted to 1450 nM; in assay [2], 27 nM.

Consider `CC[C@H](C)[C@@H]1NC(=O)[C@H](CCCNC(=N)N)NC(=O)[C@H](CCCNC(=N)N)NC(=O)[C@@H](NC(=O)[C@H](Cc2ccc(O)cc2)NC(=O)[C@H](C)NC(=O)[C@H](CCCNC(=N)N)NC(=O)[C@H](CCCNC(=N)N)NC(=O)[C@H](CCCNC(=N)N)NC(=O)[C@H](CC(=O)O)NC(=O)[C@H](Cc2ccc(O)cc2)NC(=O)[C@@H]2CCCN2C(=O)[C@H](CO)NC(=O)[C@H](CCCNC(=N)N)NC(=O)[C@@H]2CSSC[C@H](NC(=O)[C@@H](N)[C@@H](C)O)C(=O)N[C@@H](CCCNC(=N)N)C(=O)N[C@@H](CO)C(=O)N[C@@H](CO)C(=O)NCC(=O)N[C@@H](CCCNC(=N)N)C(=O)N[C@@H](Cc3ccc(O)cc3)C(=O)N2)CSSC[C@@H](C(=O)N[C@H](C(=O)O)C(C)C)NC(=O)[C@H](C)NC(=O)[C@H](CC(=O)O)NC(=O)[C@H]([C@@H](C)O)NC1=O`, for which the IC50 came out at 4520 nM in assay [1] and 54 nM in assay [2].

Take `CC[C@H](C)[C@@H]1NC(=O)[C@H](CCCNC(=N)N)NC(=O)[C@H](CCCNC(=N)N)NC(=O)[C@@H]2CSSC[C@H](NC(=O)[C@H](Cc3ccc(O)cc3)NC(=O)[C@H](CCCNC(=N)N)NC(=O)[C@H](C)NC(=O)[C@H](CO)NC(=O)[C@H](CO)NC(=O)[C@H](CCCNC(=N)N)NC(=O)[C@@H](NC(=O)[C@@H](N)[C@@H](C)O)CSSC[C@@H](C(=O)N[C@H](C(=O)O)C(C)C)NC(=O)[C@H](C)NC(=O)[C@H](CC(=O)O)NC(=O)[C@H]([C@@H](C)O)NC1=O)C(=O)N[C@@H](CCCNC(=N)N)C(=O)N[C@@H](CO)C(=O)N1CCC[C@H]1C(=O)N[C@@H](Cc1ccc(O)cc1)C(=O)N[C@@H](CC(=O)O)C(=O)N[C@@H](CCCNC(=N)N)C(=O)N[C@@H](CCCNC(=N)N)C(=O)N[C@@H](CCCNC(=N)N)C(=O)N[C@@H](CCCNC(=N)N)C(=O)N[C@@H](Cc1ccc(O)cc1)C(=O)N2` (HELM PEPTIDE1{T.C.R.S.S.A.R.Y.C.R.S.P.Y.D.R.R.R.R.Y.C.R.R.I.T.D.A.C.V}$PEPTIDE1,PEPTIDE1,2:R3-27:R3|PEPTIDE1,PEPTIDE1,9:R3-20:R3$$$V2.0): the IC50 in assay [1] worked out at 5720 nM; in assay [2] it was 17 nM.
